The experiment relates to primary mouse cortical cultures. Nature of the experiment: Confocal imaging of calcium transients and mitochondrial membrane potential. The class given is cell-based. Here is the method: Embryonic day 16 timed pregnant CD1 out-bred mice were obtained from Charles River Laboratories (Charles River; QC, Canada). Primary cortical neuron cultures were prepared from cerebral cortices of wild type (WT) CD1 mouse embryos as described previously, with the following modifications. Pregnant CD1 females were heavily anaesthetized with isoflurane vapor (Benson Medical Industries, Inc., Markham, ON) before being euthanized by decapitation. The embryonic day 16 (E16) fetuses were immediately removed from the sacrificed pregnant females by cesarean section and placed in ice-cold Hank's Balanced Salt Solution (HBSS) (GIBCO; Invitrogen, Amarillo, Calif.). The meninges were removed from the brains and cortices were isolated under a dissecting microscope. The cortices from each embryo were placed in individual wells of a 24-well plate (Corning; Lowell, Mass.), containing 1 ml of ice-cold PBS (GIBCO; […] Under sterile conditions, the tissue was briefly minced, transferred to 15 ml sterile conical tubes (Corning; Lowell, Mass.) and centrifuged at 350×g for 3 min at room temperature. The dissecting solution was discarded and the cortical neurons were then dissociated trituration with fire-polished glass pipettes followed by incubating in 1 ml of 0.1% trypsin solution (0.1% w/v trypsin (Invitrogen, Amarillo, Calif.) in PBS with 1 mM Mg^2+ and 13 mM glucose) at 37° C. for 15 min. The trypsinization was inhibited by the addition of 0.5 ml of trypsin inhibitor solution that also contained DNase I (0.06% w/v trypsin inhibitor (Invitrogen; Amarillo, Calif.) and 0.01% DNase I (Invitrogen; […] The tubes were mixed briefly and the cells were centrifuged at 350×g for 3 min at room temperature. The trypsin and inhibitor solutions were discarded and each cell pellet was suspended in 1 ml of cortical neuron plating medium (Neurobasal medium (Invitrogen, Amarillo, Calif.) with 10% fetal bovine serum (GIBCO; Invitrogen; Amarillo, Calif.), 2% B27 supplement, 1 mM L-glutamine, and 1% Gentamycin (Invitrogen; […] Cortical neurons were plated in 96-well plates (Corning; Lowell, Mass.) that were pre-coated with poly-D-lysine (PDL; Sigma-Aldrich; Oakville, ON) according to the procedure described by the manufacturer. Briefly, plates were coated immediately before use with 100 μg/ml PDL for 5-10 min (50 μl/well), washed three times with tissue-culture grade water and left to dry for 2 h before cells were introduced. Cortical neurons were plated at a concentration of 1×10^6 cells/ml (100 µl/well) and medium was completely changed the day after plating to serum-free cortical neuron medium (Neurobasal medium with 2% B27 supplement, 5 mM HEPES, 0.5 mM L-glutamine, and 20 μg/ml Gentamycin), which was replaced every 3 days in culture. Cultures were maintained in a humidified, 37° C. incubator with 5% CO2. Experiments were performed on the eighth day in vitro (DIV10). For measurements of mitochondrial membrane potential (ΔΨm), cells were loaded with 25 nM tetrannethylrhodamine methyl ester (TMRM) for 30 min at room temperature and the dye was present during the experiment. TMRM is used in the redistribution mode to assess ΔΨm with a reduction in TMRM fluorescence indicating mitochondrial depolarization. Neurons were loaded for 30 min at room temperature with X-rhod-1 AM (0.5 μM) and Fluo-3 AM (0.5 μM) (Molecular Probes, Invitrogen) prior to imaging in HEPES-buffered salt solution (HBSS) composed of (mM): 156 NaCl, 3 KCl, 2 MgSO4, 1.25 KH2PO4, 2 CaCl2, 10 glucose and 10 HEPES, pH adjusted to 7.35 with NaOH. Confocal images were obtained using a 510 CLSM (Zeiss, Thornwood, N.Y.) equipped with a META detection system and a […] oil-immersion objective. The 488 nm Argon laser line was used to excite fluo-3 fluorescence, which was measured using a bandpass filter from 505 to 550 nm. Illumination intensity was kept to a minimum (at 0.1-0.2% of laser output) to avoid phototoxicity and the pinhole was set to give an optical slice of 2 μm. […]

Consider `N#CC(C#N)=NNc1ccc(OC(F)(F)F)cc1` [FCCP, carbonyl cyanide-4-(trifluoromethoxy)phenylhydrazone], for which, under “added after Q and thapsigargin”, the TMRM fluorescence result is recorded as “complete loss” and the “[Ca2+]c” value is on record as “sharp increase”.
As to `C/C=C(/C)C(=O)O[C@H]1C(C)=C2[C@H]([C@@H]1OC(=O)CCCCCCC)[C@@](C)(OC(C)=O)C[C@H](OC(=O)CCC)[C@@]1(O)[C@H]2OC(=O)[C@@]1(C)O` [thapsigargin], for the setting “5 μM, depletion of ER Ca2+ stores”, the “[Ca2+]c oscillations stimulated by Q” value was “blocked”.

These data come from patent US20170027902A1, “Use of a Composition Comprising a Flavonol, A Flavonoid, and a Fatty Acid in the Treatment of Oxidative Injuries Due to Mitochondrial Dysfunction” (priority 2014, published 2017).
